Data published in patent US20250368666A1, “INDAZOLE COMPOUNDS” (TYRA BIOSCIENCES, INC., priority 2022, published 2025).
Where two headings read alike, the source gives them in different places.

Assays:
Experiment in all cases: Kinase binding assay (kinase-tagged T7 phage, affinity beads, qPCR), Kd
[1] = molecular target: T1, FGFR1 (Homo sapiens, UniProt P11362); conditions: read-out: FGFR1 (Kd nM)
T1 construct: made in house; host or cells: E. coli (BL21-derived), T7 phage
Procedure: (§1) Kinase-tagged T7 phage strains were prepared in an E. coli host derived from the BL21 strain. E. coli were grown to log-phase and infected with T7 phage and incubated with shaking at 32° C. until lysis. The lysates were centrifuged and filtered to remove cell debris. Streptavidin-coated magnetic beads were treated with biotinylated small molecule ligands for 30 minutes at room temperature to generate affinity resins for kinase assays. The liganded beads were blocked with excess biotin and washed with blocking buffer SeaBlock (Pierce), 1% BSA, 0.05% Tween 20, 1 mM DTT to remove unbound ligand and to reduce non-specific binding.
(§2) Test compounds were prepared as 111× stocks in 100% DMSO. Kds were determined using an 11-point 3-fold compound dilution series with three DMSO control points. […] The compounds were then diluted directly into the assays such that the final concentration of DMSO was 0.9%. All reactions performed in polypropylene 384-well plate. Each was a final volume of 0.02 ml. […] The kinase concentration in the eluates was measured by qPCR.
(§3) Binding constants were calculated with a standard dose-response curve using the Hill equation: […]
(§4) The Hill Slope was set to −1. Curves were fitted using a non-linear least square fit with the Levenberg-Marquardt algorithm.

[2] = molecular target: T2, FGFR2 (Homo sapiens, UniProt P21802); conditions: read-out: FGFR2 (Kd nM)
T2 construct: made in house; host or cells: E. coli (BL21-derived), T7 phage
T2 sequence (P21802 22-821): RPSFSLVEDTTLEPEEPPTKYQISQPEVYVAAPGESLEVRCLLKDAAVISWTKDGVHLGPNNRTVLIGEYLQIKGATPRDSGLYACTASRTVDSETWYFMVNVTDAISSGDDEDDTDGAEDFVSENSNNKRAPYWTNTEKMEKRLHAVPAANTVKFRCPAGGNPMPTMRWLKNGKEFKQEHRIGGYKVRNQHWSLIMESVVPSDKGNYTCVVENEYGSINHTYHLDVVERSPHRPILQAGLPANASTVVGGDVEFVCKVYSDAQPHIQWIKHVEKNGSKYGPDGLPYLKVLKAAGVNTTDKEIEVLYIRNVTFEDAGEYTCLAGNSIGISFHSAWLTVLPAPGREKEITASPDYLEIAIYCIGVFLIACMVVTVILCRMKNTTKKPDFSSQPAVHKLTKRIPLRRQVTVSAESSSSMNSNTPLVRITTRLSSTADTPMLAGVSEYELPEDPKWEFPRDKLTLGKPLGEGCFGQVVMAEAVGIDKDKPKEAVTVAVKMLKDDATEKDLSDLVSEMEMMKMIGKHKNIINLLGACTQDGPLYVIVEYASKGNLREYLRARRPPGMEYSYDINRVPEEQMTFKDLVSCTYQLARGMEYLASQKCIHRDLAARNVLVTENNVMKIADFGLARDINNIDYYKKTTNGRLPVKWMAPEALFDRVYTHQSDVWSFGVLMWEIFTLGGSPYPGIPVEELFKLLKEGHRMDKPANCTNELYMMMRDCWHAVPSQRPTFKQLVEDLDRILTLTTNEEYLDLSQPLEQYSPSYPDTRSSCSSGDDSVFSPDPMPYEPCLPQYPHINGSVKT
Procedure: as §1, §2, §3, §4

[3] = molecular target: T3, FGFR3 (Homo sapiens, UniProt P22607); conditions: read-out: FGFR3 (Kd nM)
T3 construct: made in house; host or cells: E. coli (BL21-derived), T7 phage
T3 sequence (P22607 23-806): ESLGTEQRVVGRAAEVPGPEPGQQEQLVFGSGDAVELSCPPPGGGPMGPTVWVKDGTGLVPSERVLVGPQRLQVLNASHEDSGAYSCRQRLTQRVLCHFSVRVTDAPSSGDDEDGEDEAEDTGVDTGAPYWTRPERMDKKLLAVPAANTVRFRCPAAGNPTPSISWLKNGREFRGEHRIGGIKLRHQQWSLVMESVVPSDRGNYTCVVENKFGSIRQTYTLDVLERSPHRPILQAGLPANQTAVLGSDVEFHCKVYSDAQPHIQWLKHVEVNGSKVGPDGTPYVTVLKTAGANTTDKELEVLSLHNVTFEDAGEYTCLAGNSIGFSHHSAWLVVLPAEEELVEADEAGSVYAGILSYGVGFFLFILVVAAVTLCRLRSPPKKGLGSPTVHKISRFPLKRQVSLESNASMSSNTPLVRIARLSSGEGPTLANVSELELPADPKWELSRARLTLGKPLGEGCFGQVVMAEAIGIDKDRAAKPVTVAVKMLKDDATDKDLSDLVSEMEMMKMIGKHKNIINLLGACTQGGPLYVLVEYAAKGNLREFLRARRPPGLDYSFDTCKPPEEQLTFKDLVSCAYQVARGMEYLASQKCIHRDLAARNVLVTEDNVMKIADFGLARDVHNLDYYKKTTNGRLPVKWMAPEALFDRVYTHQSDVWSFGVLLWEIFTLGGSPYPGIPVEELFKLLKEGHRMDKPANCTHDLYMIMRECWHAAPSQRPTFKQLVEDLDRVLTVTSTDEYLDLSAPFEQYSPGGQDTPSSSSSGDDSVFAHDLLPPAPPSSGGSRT
Procedure: as §1, §2, §3, §4

[4] = molecular target: T4, FGFR3 (V555M) (Homo sapiens, UniProt P22607, V555M); conditions: V555M mutant; read-out: FGFR3 (V555M) (Kd nM)
T4 construct: made in house; host or cells: E. coli (BL21-derived), T7 phage
T4 sequence (P22607 23-806 V555M): as the sequence (P22607 23-806) above, with V533M counted along it
Procedure: as §1, §2, §3, §4

[5] = molecular target: T5, FGFR4 (Homo sapiens, UniProt P22455); conditions: read-out: FGFR4 (Kd nM)
T5 construct: made in house; host or cells: E. coli (BL21-derived), T7 phage
T5 sequence (P22455 22-802): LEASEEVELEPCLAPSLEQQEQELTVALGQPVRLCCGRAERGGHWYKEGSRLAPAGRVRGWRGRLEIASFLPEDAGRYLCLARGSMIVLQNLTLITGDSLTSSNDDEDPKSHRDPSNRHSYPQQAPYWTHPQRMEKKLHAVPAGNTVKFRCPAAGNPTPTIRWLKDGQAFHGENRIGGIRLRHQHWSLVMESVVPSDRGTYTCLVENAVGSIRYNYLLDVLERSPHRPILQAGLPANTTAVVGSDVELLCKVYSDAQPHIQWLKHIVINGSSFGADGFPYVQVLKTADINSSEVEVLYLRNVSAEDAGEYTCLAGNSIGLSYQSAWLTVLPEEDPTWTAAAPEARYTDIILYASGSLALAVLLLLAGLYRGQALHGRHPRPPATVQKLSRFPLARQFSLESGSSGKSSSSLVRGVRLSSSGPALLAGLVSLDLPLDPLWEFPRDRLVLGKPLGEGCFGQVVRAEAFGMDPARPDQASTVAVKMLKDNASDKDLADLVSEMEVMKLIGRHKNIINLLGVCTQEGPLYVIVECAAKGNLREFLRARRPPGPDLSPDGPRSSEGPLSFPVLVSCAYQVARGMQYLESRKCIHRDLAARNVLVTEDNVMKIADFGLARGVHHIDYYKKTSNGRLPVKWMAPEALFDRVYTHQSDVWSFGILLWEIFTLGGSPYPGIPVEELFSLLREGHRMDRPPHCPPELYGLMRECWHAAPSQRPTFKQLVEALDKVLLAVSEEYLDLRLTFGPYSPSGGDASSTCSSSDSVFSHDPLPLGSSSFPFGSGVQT
Procedure: as §1, §2, §3, §4

[6] = kinase binding assay, 11-point 3-fold dilution series

T1 sequence (P11362 22-822): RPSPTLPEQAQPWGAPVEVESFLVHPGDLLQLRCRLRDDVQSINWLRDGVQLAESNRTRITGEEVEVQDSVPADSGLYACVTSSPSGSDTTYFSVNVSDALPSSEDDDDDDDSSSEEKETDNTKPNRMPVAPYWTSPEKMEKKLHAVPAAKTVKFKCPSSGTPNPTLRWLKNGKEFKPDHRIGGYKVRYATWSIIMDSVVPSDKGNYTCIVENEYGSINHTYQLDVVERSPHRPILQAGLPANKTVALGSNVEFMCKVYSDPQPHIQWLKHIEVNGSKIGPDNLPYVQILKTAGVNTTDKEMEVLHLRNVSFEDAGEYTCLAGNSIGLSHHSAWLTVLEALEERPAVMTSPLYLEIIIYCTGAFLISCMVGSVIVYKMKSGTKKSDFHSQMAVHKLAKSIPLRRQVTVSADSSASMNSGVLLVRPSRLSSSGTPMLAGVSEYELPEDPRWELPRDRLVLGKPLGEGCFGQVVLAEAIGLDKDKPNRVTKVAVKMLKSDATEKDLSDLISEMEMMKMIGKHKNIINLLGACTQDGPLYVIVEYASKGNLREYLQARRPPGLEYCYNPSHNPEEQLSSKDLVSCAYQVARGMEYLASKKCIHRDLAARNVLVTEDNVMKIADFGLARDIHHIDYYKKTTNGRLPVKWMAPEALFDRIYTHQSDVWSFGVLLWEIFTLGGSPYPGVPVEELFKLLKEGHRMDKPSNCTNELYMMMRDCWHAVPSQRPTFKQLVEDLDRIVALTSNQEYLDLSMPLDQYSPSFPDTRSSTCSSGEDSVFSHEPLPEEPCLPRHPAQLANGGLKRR

Kd [1] [nM] | Kd [2] [nM] | Kd [3] [nM] | Kd [4] [nM] | Kd [5] [nM] | Kd [1, 6] [nM] | Kd [3, 6] [nM] | Compound
50 to 300 | 50 to 300 | 1 to 50 | 1 to 50 | 1 to 50 | – | – | C[C@@H](Oc1ccc2[nH]nc(-c3cnc(N4CC(C)(NC5CCC5)C4)c(C#N)c3)c2c1)c1c(Cl)cncc1Cl [Example 2, (R)-2-(3-(cyclobutylamino)-3-methylazetidin-1-yl)-5-(5-(1-(3,5-dichloropyridin-4-yl)ethoxy)-1H-indazol-3-yl)nicotinonitrile]
50 to 300 | 300 to 1000 | 1 to 50 | 1 to 50 | 1 to 50 | – | – | COc1cc2[nH]nc(-c3cnc(N4CC5(CC5)C4)c(C#N)c3)c2cc1O[C@H](C)c1c(Cl)cncc1Cl [Example 3, (R)-5-(5-(1-(3,5-dichloropyridin-4-yl)ethoxy)-6-methoxy-1H-indazol-3-yl)-2-(5-azaspiro[2.3]hexan-5-yl)nicotinonitrile]
– | – | – | – | – | 1 to 50 | 1 to 50 | C[C@@H](Oc1ccc2[nH]nc(-c3ccc(N4CCC(N)(CCS(C)(=O)=O)CC4)nn3)c2c1)c1c(Cl)cncc1Cl [Example 398, (R)-1-(6-(5-(1-(3,5-dichloropyridin-4-yl)ethoxy)-1H-indazol-3-yl)pyridazin-3-yl)-4-(2-(methylsulfonyl)ethyl) piperidin-4-amine]
– | – | – | – | – | 1 to 50 | 1 to 50 | CNC(=O)CNC1(C)CN(c2ncc(-c3n[nH]c4ccc(O[C@H](C)c5c(Cl)cncc5Cl)cc34)cc2F)C1 [Example 399, (R)-2-((1-(5-(5-(1-(3,5-dichloropyridin-4-yl)ethoxy)-1H-indazol-3-yl)-3-fluoropyridin-2-yl)-3-methylazetidin-3-yl)amino)-N-methylacetamide]
– | – | – | – | – | 1 to 50 | 1 to 50 | C[C@@H](Oc1ccc2[nH]nc(-c3cnc(N4CC[C@@](C)(N)C4)c(F)c3)c2c1)c1c(Cl)cncc1Cl [Example 400, (R)-1-(5-(5-((R)-1-(3,5-dichloropyridin-4-yl)ethoxy)-1H-indazol-3-yl)-3-fluoropyridin-2-yl)-3-methylpyrrolidin-3-amine]
– | – | – | – | – | 1 to 50 | 1 to 50 | C[C@@H](Oc1ccc2[nH]nc(-c3cnc(N4CCC(C)(N)CC4)c(F)c3)c2c1)c1c(Cl)cncc1Cl [Example 401]
– | – | – | – | – | 1 to 50 | 1 to 50 | CC[C@@]1(N)CCN(c2ccc(-c3n[nH]c4ccc(O[C@H](C)c5c(Cl)cncc5Cl)cc34)nn2)C1 [Example 402, (R)-1-(6-(5-((R)-1-(3,5-dichloropyridin-4-yl)ethoxy)-1H-indazol-3-yl)pyridazin-3-yl)-3-ethylpyrrolidin-3-amine]
– | – | – | – | – | 1 to 50 | 1 to 50 | CC[C@]1(N)CCN(c2ccc(-c3n[nH]c4ccc(O[C@H](C)c5c(Cl)cncc5Cl)cc34)nn2)C1 [Example 403, (S)-1-(6-(5-((R)-1-(3,5-dichloropyridin-4-yl)ethoxy)-1H-indazol-3-yl)pyridazin-3-yl)-3-ethylpyrrolidin-3-amine]
– | – | – | – | – | 1 to 50 | 1 to 50 | C[C@@H](Oc1ccc2[nH]nc(-c3cnc(N4CC[C@](N)(c5ccnn5C)C4)c(F)c3)c2c1)c1c(Cl)cncc1Cl [Example 404, (R)-1-(5-(5-((R)-1-(3,5-dichloropyridin-4-yl)ethoxy)-1H-indazol-3-yl)-3-fluoropyridin-2-yl)-3-(1-methyl-1H-pyrazol-5-yl)pyrrolidin-3-amine]
– | – | – | – | – | 1 to 50 | 1 to 50 | C[C@@H](Oc1ccc2[nH]nc(-c3cnc(N4CC[C@@](N)(c5ccnn5C)C4)c(F)c3)c2c1)c1c(Cl)cncc1Cl [Example 405, (S)-1-(5-(5-((R)-1-(3,5-dichloropyridin-4-yl)ethoxy)-1H-indazol-3-yl)-3-fluoropyridin-2-yl)-3-(1-methyl-1H-pyrazol-5-yl)pyrrolidin-3-amine]
– | – | – | – | – | 1 to 50 | 1 to 50 | C[C@@H](Oc1ccc2[nH]nc(-c3ccc(N4CC[C@@](C)(N)C4)nn3)c2c1)c1c(Cl)cncc1Cl [Example 406, (R)-1-(6-(5-((R)-1-(3,5-dichloropyridin-4-yl)ethoxy)-1H-indazol-3-yl)pyridazin-3-yl)-3-methylpyrrolidin-3-amine]
– | – | – | – | – | 1 to 50 | 1 to 50 | C[C@@H](Oc1ccc2[nH]nc(-c3ccc(N4CC[C@](C)(N)C4)nn3)c2c1)c1c(Cl)cncc1Cl [Example 407, (S)-1-(6-(5-((R)-1-(3,5-dichloropyridin-4-yl)ethoxy)-1H-indazol-3-yl)pyridazin-3-yl)-3-methylpyrrolidin-3-amine]
– | – | – | – | – | 1 to 50 | 1 to 50 | C[C@@H](Oc1ccc2[nH]nc(-c3cnc(N4CC(N)(CS(C)(=O)=O)C4)c(F)c3)c2c1)c1c(Cl)cncc1Cl [Example 412, 1-[5-[5-[(1R)-1-(3,5-dichloro-4-pyridyl)ethoxy]-1H-indazol-3-yl]-3-fluoro-2-pyridyl]-3-(methylsulfonyl-methyl)azetidin-3-amine]
– | – | – | – | – | 1 to 50 | 1 to 50 | C[C@@H](Oc1ccc2[nH]nc(-c3ccc(N4CC[C@@](N)(c5ccnn5C)C4)nn3)c2c1)c1c(Cl)cncc1Cl [Example 417, (S)-1-(6-(5-((R)-1-(3,5-dichloropyridin-4-yl)ethoxy)-1H-indazol-3-yl)pyridazin-3-yl)-3-(1-methyl-1H-pyrazol-5-yl)pyrrolidin-3-amine]
– | – | – | – | – | 1 to 50 | 1 to 50 | C[C@@H](Oc1ccc2[nH]nc(-c3ccc(N4CC[C@](N)(Cc5ccnn5C)C4)nn3)c2c1)c1c(Cl)cncc1Cl [Example 424, (S)-1-(6-(5-((R)-1-(3,5-dichloropyridin-4-yl)ethoxy)-1H-indazol-3-yl)pyridazin-3-yl)-3-((1-methyl-1H-pyrazol-5-yl)methyl)pyrrolidin-3-amine]
– | – | – | – | – | 1 to 50 | 1 to 50 | C[C@@H](Oc1ccc2[nH]nc(-c3ccc(N4CC[C@@](N)(Cc5ccnn5C)C4)nn3)c2c1)c1c(Cl)cncc1Cl [Example 425, (R)-1-(6-(5-((R)-1-(3,5-dichloropyridin-4-yl)ethoxy)-1H-indazol-3-yl)pyridazin-3-yl)-3-((1-methyl-1H-pyrazol-5-yl)methyl)pyrrolidin-3-amine]
– | – | – | – | – | 1 to 50 | 1 to 50 | C[C@@H](Oc1ccc2[nH]nc(-c3ccc(N4CC[C@](N)(Cc5ccn(C)n5)C4)nn3)c2c1)c1c(Cl)cncc1Cl [Example 426, (S)-1-(6-(5-((R)-1-(3,5-dichloropyridin-4-yl)ethoxy)-1H-indazol-3-yl)pyridazin-3-yl)-3-((1-methyl-1H-pyrazol-3-yl)methyl)pyrrolidin-3-amine]
– | – | – | – | – | 1 to 50 | 1 to 50 | C[C@@H](Oc1ccc2[nH]nc(-c3ccc(N4CC[C@@](N)(Cc5ccn(C)n5)C4)nn3)c2c1)c1c(Cl)cncc1Cl [Example 427, (R)-1-(6-(5-((R)-1-(3,5-dichloropyridin-4-yl)ethoxy)-1H-indazol-3-yl)pyridazin-3-yl)-3-((1-methyl-1H-pyrazol-3-yl)methyl)pyrrolidin-3-amine]
– | – | – | – | – | 1 to 50 | 1 to 50 | C[C@@H](Oc1ccc2[nH]nc(-c3cnc(N4CC[C@](N)(Cc5ccn(C)n5)C4)c(F)c3)c2c1)c1c(Cl)cncc1Cl [Example 428, (S)-1-(5-(5-((R)-1-(3,5-dichloropyridin-4-yl)ethoxy)-1H-indazol-3-yl)-3-fluoropyridin-2-yl)-3-((1-methyl-1H-pyrazol-3-yl)methyl)pyrrolidin-3-amine]

Compound | Kd [1] [nM] | Kd [2] [nM] | Kd [3] [nM] | Kd [4] [nM] | Kd [5] [nM] | Kd [1, 6] [nM] | Kd [3, 6] [nM]
3-[6-[3-(cyclobutoxy)- 3-methyl-azetidin-1- yl]-3-pyridy1]-5-[(1R)- 1-(3,5-dichloro-2- methyl-4- pyridyl)ethoxy]-1H- indazole [Example 75] | 300 to 1000 | 50 to 300 | 1 to 50 | 1 to 50 | 50 to 300 | – | –
